From patent EP2955182A1, “Pyridazinones for the treatment of cancer” (Max-Planck-Gesellschaft zur Förderung der Wissenschaften …, priority 2014, dated 2015) come the findings set out here.

pKd: −log10 of the molar value.

The target in the test is PDEδ (Homo sapiens, UniProt O43924). Nature of the test: Fluorescence polarization competition binding assay (displacement titration of labeled Atorvastatin-probe). The settings on record: fluorescence polarization assay, displacement of fluorescent-tagged Atorvastatin analog from PDEδ; read-out: KD. An excerpt: Example C.2: Displacement titrations of labeled Atorvastatin-probe for the determination of KD values:
Table 3. KD values for compounds of general formula (I) as determined by means of fluorescence polarization assay

`COc1cccc(CNC(=O)CCCn2c(C)c3cnn(-c4ccccc4)c(=O)c3c2C)c1` [Compound 2, 4-(5,7-dimethyl-1-oxo-2-phenyl-1H-pyrrolo[3,4-d]pyridazin-6(2H)-yl)-N-(3-methoxybenzyl)butanamide]: the pKd was 7.00 to 7.52.
With `COc1ccccc1-c1nnc(CCCn2c(C)c3cnn(-c4ccccc4)c(=O)c3c2C)o1` [Compound 25, 6-(3-(5-(2-methoxyphenyl)-1,3,4-oxadiazol-2-yl)propyl)-5,7-dimethyl-2-phenyl-2,6-dihydro-1H-pyrrolo[3,4-d]pyridazin-1-one], the pKd was 6.00 to 7.00.
Consider `Cc1ccc(-n2nc3c(=O)n(CCCC(=O)NCc4ccccn4)nc(C)c3c2C)cc1` [Compound 40, 4-(3,4-dimethyl-7-oxo-2-(p-tolyl)-2H-pyrazolo[3,4-d]pyridazin-6(7H)-yl)-N-(pyridin-2-ylmethyl)butanamide], for which the negative logarithm of the Kd (pKd) is 6.00 to 7.00.
As for `Cc1c2cnn(-c3ccccc3)c(=O)c2c(C)n1CCCC(=O)NCc1ccco1` [Compound 7, 4-(5,7-dimethyl-1-oxo-2-phenyl-1H-pyrrolo[3,4-d]pyridazin-6(2H)-yl)-N-(furan-2-ylmethyl)butanamide], the negative-log Kd (pKd) is 6.00 to 7.00.
With `Cc1ccc(CCNC(=O)CCCn2nc(C)c3c(C)n(-c4ccc(C)cc4)nc3c2=O)cc1` [Compound 47, 4-(3,4-dimethyl-7-oxo-2-(p-tolyl)-2H-pyrazolo[3,4-d]pyridazin-6(7H)-yl)-N-(4-methylphenethyl)butanamide], the negative logarithm of the Kd (pKd) is greater than 7.52.
For the compound `Cc1c2cnn(-c3ccccc3)c(=O)c2c(C)n1CCCc1nnc(-c2ccncc2)o1` [Compound 28, 5,7-dimethyl-2-phenyl-6-(3-(5-(pyridin-4-yl)-1,3,4-oxadiazol-2-yl)propyl)-2,6-dihydro-1H-pyrrolo[3,4-d]pyridazin-1-one], the negative-log Kd (pKd) was less than 6.00.
Turning to `Cc1c2cnn(-c3ccccc3)c(=O)c2c(C)n1CCCC(=O)NCc1ccccn1` [Compound 8, 4-(5,7-dimethyl-1-oxo-2-phenyl-1H-pyrrolo[3,4-d]pyridazin-6(2H)-yl)-N-(pyridin-2-ylmethyl)butanamide], the pKd was 6.00 to 7.00.
In the case of `Cc1ccc(-n2nc3c(=O)n(CCCC(=O)NCC4CCCO4)nc(C)c3c2C)cc1` (stereo not shown) [Compound 39, 4-(3,4-dimethyl-7-oxo-2-(p-tolyl)-2H-pyrazolo[3,4-d]pyridazin-6(7H)-yl)-N-((tetrahydrofuran-2-yl)methyl)butanamide], the pKd was 7.00 to 7.52.
As to `COc1ccc(-c2noc(CCCn3c(C)c4cnn(-c5ccccc5)c(=O)c4c3C)n2)cc1` [Compound 18, 6-(3-(3-(4-methoxyphenyl)-1,2,4-oxadiazol-5-yl)propyl)-5,7-dimethyl-2-phenyl-2,6-dihydro-1H-pyrrolo[3,4-d]pyridazin-1-one], the pKd was less than 6.00.
The same measure for `Cc1ccc(-n2nc3c(=O)n(CCCC(=O)NCc4ccco4)nc(C)c3c2C)cc1` [Compound 38, 4-(3,4-dimethyl-7-oxo-2-(p-tolyl)-2H-pyrazolo[3,4-d]pyridazin-6(7H)-yl)-N-(furan-2-ylmethyl)butanamide]: 7.00 to 7.52.
`COc1ccc(CNC(=O)CCCn2nc(C)c3c(C)n(-c4ccc(C)cc4)nc3c2=O)cc1` [Compound 43, 4-(3,4-dimethyl-7-oxo-2-(p-tolyl)-2H-pyrazolo[3,4-d]pyridazin-6(7H)-yl)-N-(4-methoxybenzyl)butanamide]: the negative logarithm of the Kd (pKd) is greater than 7.52.
For `Cc1c2cnn(-c3ccccc3)c(=O)c2c(C)n1CCCC(=O)NCc1cccc(Cl)c1` [Compound 3, N-(3-chlorobenzyl)-4-(5,7-dimethyl-1-oxo-2-phenyl-1H-pyrrolo[3,4-d]pyridazin-6(2H)-yl)butanamide], the pKd is 7.00 to 7.52.
With `Cc1ccc(-c2nnc(CCCn3c(C)c4cnn(-c5ccccc5)c(=O)c4c3C)o2)cc1` [Compound 23, 5,7-dimethyl-2-phenyl-6-(3-(5-(p-tolyl)-1,3,4-oxadiazol-2-yl)propyl)-2,6-dihydro-1H-pyrrolo[3,4-d]pyridazin-1-one], the negative logarithm of the Kd (pKd) was less than 6.00.
On to `Cc1c2cnn(-c3ccccc3)c(=O)c2c(C)n1CCCC(=O)NC1CCCC1` [Compound 10, N-cyclopentyl-4-(5,7-dimethyl-1-oxo-2-phenyl-1H-pyrrolo[3,4-d]pyridazin-6(2H)-yl)butanamide], for which the negative-log Kd (pKd) is 7.00 to 7.52.
Turning to `COc1ccccc1CNC(=O)CCCn1nc(C)c2c(C)n(-c3ccccc3)nc2c1=O` [Compound 34, 4-(3,4-dimethyl-7-oxo-2-phenyl-2H-pyrazolo[3,4-d]pyridazin-6(7H)-yl)-N-(2-methoxybenzyl)butanamide], the negative-log Kd (pKd) was 7.00 to 7.52.
The same measure for `Cc1ccc(-n2nc3c(=O)n(CCCC(=O)NC4CCC(C)CC4)nc(C)c3c2C)cc1` (stereo not shown) [Compound 53, 4-(3,4-dimethyl-7-oxo-2-(p-tolyl)-2H-pyrazolo[3,4-d]pyridazin-6(7H)-yl)-N-(4-methylcyclohexyl)butanamide]: greater than 7.52; for `Cc1c2cnn(-c3ccccc3)c(=O)c2c(C)n1CCCc1nc(-c2ccc(C(F)(F)F)cc2)no1` [Compound 20, 5,7-dimethyl-2-phenyl-6-(3-(3-(4-(trifluoromethyl)phenyl)-1,2,4-oxadiazol-5-yl)propyl)-2,6-dihydro-1H-pyrrolo[3,4-d]pyridazin-1-one]: less than 6.00.
In the case of `COc1ccc(OC)c(-c2noc(CCCn3c(C)c4cnn(-c5ccccc5)c(=O)c4c3C)n2)c1` [Compound 19, 6-(3-(3-(2,5-dimethoxyphenyl)-1,2,4-oxadiazol-5-yl)propyl)-5,7-dimethyl-2-phenyl-2,6-dihydro-1H-pyrrolo[3,4-d]pyridazin-1-one], the pKd was less than 6.00.
Regarding `Cc1c2cnn(-c3ccccc3)c(=O)c2c(C)n1CCCC(=O)NCc1ccccc1` [Compound 1, N-benzyl-4-(5,7-dimethyl-1-oxo-2-phenyl-1H-pyrrolo[3,4-d]pyridazin-6(2H)-yl)butanamide], the pKd is 7.00 to 7.52.
Consider `COc1ccc(CNC(=O)CCCn2nc(C)c3c(C)n(-c4ccccc4)nc3c2=O)cc1` [Compound 32, 4-(3,4-dimethyl-7-oxo-2-phenyl-2H-pyrazolo[3,4-d]pyridazin-6(7H)-yl)-N-(4-methoxybenzyl)butanamide], for which the negative-log Kd (pKd) was 7.00 to 7.52.
Regarding `Cc1ccc(-n2nc3c(=O)n(CCCC(=O)NCc4ccc(OC(C)C)cc4)nc(C)c3c2C)cc1` [Compound 45], the negative logarithm of the Kd (pKd) was greater than 7.52.
The same measure for `Cc1ccc(-n2nc3c(=O)n(CCCC(=O)NC4CC4)nc(C)c3c2C)cc1` [Compound 51, N-cyclopropyl-4-(3,4-dimethyl-7-oxo-2-(p-tolyl)-2H-pyrazolo[3,4-d]pyridazin-6(7H)-yl)butanamide]: 6.00 to 7.00; for `Cc1ccc(CNC(=O)CCCn2nc(C)c3c(C)n(-c4ccc(C)cc4)nc3c2=O)cc1` [Compound 44, 4-(3,4-dimethyl-7-oxo-2-(p-tolyl)-2H-pyrazolo[3,4-d]pyridazin-6(7H)-yl)-N-(4-methylbenzyl)butanamide]: greater than 7.52.
For `Cc1ccc(-n2nc3c(=O)n(CCCC(=O)NC4CCCC4)nc(C)c3c2C)cc1` [Compound 52, N-cyclopentyl-4-(3,4-dimethyl-7-oxo-2-(p-tolyl)-2H-pyrazolo[3,4-d]pyridazin-6(7H)-yl)butanamide], the pKd was greater than 7.52.
Then `Cc1c2cnn(-c3ccccc3)c(=O)c2c(C)n1CCCC(=O)NC1CCC(C)CC1` (stereo not shown) [Compound 12, 4-(5,7-dimethyl-1-oxo-2-phenyl-1H-pyrrolo[3,4-d]pyridazin-6(2H)-yl)-N-(4-methylcyclohexyl)butanamide], with greater than 7.52; and `Cc1c2cnn(-c3ccccc3)c(=O)c2c(C)n1CCCC(=O)NCc1ccc(Cl)cc1` [Compound 5, N-(4-chlorobenzyl)-4-(5,7-dimethyl-1-oxo-2-phenyl-1H-pyrrolo[3,4-d]pyridazin-6(2H)-yl)butanamide], with 7.00 to 7.52.
In the case of `Cc1c2cnn(-c3ccccc3)c(=O)c2c(C)n1CCCc1nnc(-c2ccc(C(F)(F)F)cc2)o1` [Compound 26, 5,7-dimethyl-2-phenyl-6-(3-(5-(4-(trifluoromethyl)phenyl)-1,3,4-oxadiazol-2-yl)propyl)-2,6-dihydro-1H-pyrrolo[3,4-d]pyridazin-1-one], the negative-log Kd (pKd) is 6.00 to 7.00.
For `COc1ccc(-c2nnc(CCCn3c(C)c4cnn(-c5ccccc5)c(=O)c4c3C)o2)cc1` [Compound 24, 6-(3-(5-(4-methoxyphenyl)-1,3,4-oxadiazol-2-yl)propyl)-5,7-dimethyl-2-phenyl-2,6-dihydro-1H-pyrrolo[3,4-d]pyridazin-1-one], the pKd was less than 6.00.
For `Cc1nn(CCCC(=O)NCCc2ccccc2)c(=O)c2nn(-c3ccccc3)c(C)c12` [Compound 36, 4-(3,4-dimethyl-7-oxo-2-phenyl-2H-pyrazolo[3,4-d]pyridazin-6(7H)-yl)-N-phenethylbutanamide], the pKd is greater than 7.52.
The same measure for `Cc1nn(CCCC(=O)NCc2ccco2)c(=O)c2nn(-c3ccccc3)c(C)c12` [Compound 30, 4-(3,4-dimethyl-7-oxo-2-phenyl-2H-pyrazolo[3,4-d]pyridazin-6(7H)-yl)-N-(furan-2-ylmethyl)butanamide]: 7.00 to 7.52; for `Cc1ccc(-n2nc3c(=O)n(CCCC(=O)NCCc4ccccc4)nc(C)c3c2C)cc1` [Compound 46, 4-(3,4-dimethyl-7-oxo-2-(p-tolyl)-2H-pyrazolo[3,4-d]pyridazin-6(7H)-yl)-N-phenethylbutanamide]: greater than 7.52; for `COc1cccc(CNC(=O)CCCn2nc(C)c3c(C)n(-c4ccccc4)nc3c2=O)c1` [Compound 33, 4-(3,4-dimethyl-7-oxo-2-phenyl-2H-pyrazolo[3,4-d]pyridazin-6(7H)-yl)-N-(3-methoxybenzyl)butanamide]: 7.00 to 7.52.
The same measure for `Cc1ccc(CNC(=O)CCCn2nc(C)c3c(C)n(-c4ccccc4)nc3c2=O)cc1` [Compound 35, 4-(3,4-dimethyl-7-oxo-2-phenyl-2H-pyrazolo[3,4-d]pyridazin-6(7H)-yl)-N-(4-methylbenzyl)butanamide]: 7.00 to 7.52.
The same measure for `Cc1c2cnn(-c3ccccc3)c(=O)c2c(C)n1CCCc1nc2ccccc2n1Cc1ccccc1` [Compound 15, 6-(3-(1-benzyl-1H-benzo[d]imidazol-2-yl)propyl)-5,7-dimethyl-2-phenyl-2,6-dihydro-1H-pyrrolo[3,4-d]pyridazin-1-one]: greater than 7.52.
